Legend:
Experiment in all cases: KINOMEscan competition binding
Settings in all cases: compound 10.0 µM
[1] = biological target: ACVR1 (human) (UniProt Q04771)
[2] = biological target: ADCK3 (human) (UniProt Q8NI60)
[3] = biological target: AXL (human) (UniProt P30530)
[4] = biological target: CLK3 (human) (UniProt P49761)
[5] = biological target: DSTYK (human) (UniProt Q6XUX3)
[6] = biological target: DYRK1A (human) (UniProt Q13627)
[7] = biological target: EPHA3 (human) (UniProt P29320)
[8] = biological target: FES (human) (UniProt P07332)
Chain of FES (human) (P07332 whole entry, looked up): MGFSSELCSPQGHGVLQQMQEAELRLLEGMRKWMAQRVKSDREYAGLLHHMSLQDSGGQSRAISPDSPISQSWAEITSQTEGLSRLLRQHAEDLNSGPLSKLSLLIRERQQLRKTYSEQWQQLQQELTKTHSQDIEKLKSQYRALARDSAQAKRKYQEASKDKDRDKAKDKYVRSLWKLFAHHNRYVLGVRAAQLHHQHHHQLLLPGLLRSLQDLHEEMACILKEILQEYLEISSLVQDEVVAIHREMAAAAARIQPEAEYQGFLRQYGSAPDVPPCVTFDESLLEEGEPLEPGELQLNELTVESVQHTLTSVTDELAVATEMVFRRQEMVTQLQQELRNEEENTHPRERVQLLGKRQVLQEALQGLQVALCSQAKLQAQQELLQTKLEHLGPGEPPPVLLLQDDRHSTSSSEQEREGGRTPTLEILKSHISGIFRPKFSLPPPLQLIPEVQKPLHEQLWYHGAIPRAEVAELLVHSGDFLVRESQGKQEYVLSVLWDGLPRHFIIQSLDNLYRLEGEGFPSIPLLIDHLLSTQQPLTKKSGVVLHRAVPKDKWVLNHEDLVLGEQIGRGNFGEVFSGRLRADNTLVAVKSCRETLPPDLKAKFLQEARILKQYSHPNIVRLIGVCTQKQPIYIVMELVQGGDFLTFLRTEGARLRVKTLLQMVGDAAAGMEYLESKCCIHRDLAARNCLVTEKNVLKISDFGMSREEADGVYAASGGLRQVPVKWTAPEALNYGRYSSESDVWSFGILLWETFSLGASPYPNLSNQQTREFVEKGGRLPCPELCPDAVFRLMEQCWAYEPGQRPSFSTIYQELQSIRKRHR

[9] = biological target: GRK1 (human) (UniProt Q15835)
[10] = biological target: GSK3B (human) (UniProt P49841)
Chain of GSK3B (human) (P49841 whole entry, looked up): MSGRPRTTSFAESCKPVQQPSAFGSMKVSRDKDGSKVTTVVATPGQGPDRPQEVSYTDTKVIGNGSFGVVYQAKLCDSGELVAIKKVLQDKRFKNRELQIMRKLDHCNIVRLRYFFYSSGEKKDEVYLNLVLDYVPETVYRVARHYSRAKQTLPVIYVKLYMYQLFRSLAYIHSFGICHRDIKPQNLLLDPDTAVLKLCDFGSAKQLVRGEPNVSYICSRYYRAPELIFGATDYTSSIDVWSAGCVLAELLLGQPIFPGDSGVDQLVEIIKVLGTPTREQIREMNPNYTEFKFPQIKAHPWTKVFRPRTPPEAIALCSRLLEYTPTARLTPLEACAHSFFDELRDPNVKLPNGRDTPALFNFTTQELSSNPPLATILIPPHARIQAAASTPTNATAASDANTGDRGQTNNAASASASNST

[11] = biological target: ICK (human) (UniProt Q9UPZ9)
[12] = biological target: INSR (human) (UniProt P06213)
[13] = biological target: JAK2 JH1 catalytic (human) (UniProt O60674)
[14] = biological target: LIMK1 (human) (UniProt P53667)
[15] = biological target: MAK (human) (UniProt P20794)
[16] = biological target: MAP4K3 (human) (UniProt Q8IVH8)
Chain of MAP4K3 (human) (Q8IVH8 whole entry, looked up): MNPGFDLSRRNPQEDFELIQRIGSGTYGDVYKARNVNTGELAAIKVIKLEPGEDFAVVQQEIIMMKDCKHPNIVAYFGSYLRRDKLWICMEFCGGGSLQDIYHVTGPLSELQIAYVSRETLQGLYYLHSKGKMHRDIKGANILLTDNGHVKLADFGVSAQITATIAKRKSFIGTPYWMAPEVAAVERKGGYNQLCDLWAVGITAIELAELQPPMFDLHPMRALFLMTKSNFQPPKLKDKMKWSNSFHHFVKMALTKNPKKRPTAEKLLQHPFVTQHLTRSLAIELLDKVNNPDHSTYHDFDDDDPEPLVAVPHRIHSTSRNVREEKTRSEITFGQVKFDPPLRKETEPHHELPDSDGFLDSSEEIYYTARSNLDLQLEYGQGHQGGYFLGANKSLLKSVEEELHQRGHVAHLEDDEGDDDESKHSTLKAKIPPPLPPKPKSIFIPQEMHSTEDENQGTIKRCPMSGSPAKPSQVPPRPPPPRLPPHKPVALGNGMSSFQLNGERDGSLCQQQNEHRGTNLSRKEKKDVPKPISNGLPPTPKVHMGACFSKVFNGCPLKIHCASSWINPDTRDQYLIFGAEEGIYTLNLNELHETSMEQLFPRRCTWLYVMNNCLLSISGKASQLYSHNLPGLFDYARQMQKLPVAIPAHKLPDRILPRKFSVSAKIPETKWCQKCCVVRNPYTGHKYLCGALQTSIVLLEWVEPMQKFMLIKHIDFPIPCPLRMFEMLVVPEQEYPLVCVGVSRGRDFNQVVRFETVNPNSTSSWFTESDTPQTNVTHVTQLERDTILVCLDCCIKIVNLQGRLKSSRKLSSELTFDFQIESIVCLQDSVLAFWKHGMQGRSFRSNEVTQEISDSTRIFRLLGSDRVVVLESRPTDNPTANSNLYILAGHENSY

[17] = biological target: MAPK4 (human) (UniProt P31152)
[18] = biological target: MAPK6 (human) (UniProt Q16659)
[19] = biological target: MAPK7 (human) (UniProt Q13164)
[20] = biological target: MELK (human) (UniProt Q14680)
[21] = biological target: MST1R (human) (UniProt Q04912)
[22] = biological target: MST4 (human) (UniProt Q9P289)
[23] = biological target: MYLK4 (human) (UniProt Q86YV6)
[24] = biological target: NEK1 (human) (UniProt Q96PY6)
[25] = biological target: PAK7 (human) (UniProt Q9P286)
[26] = biological target: PI4KB (human) (UniProt Q9UBF8)
[27] = biological target: PIK3CA (human) (UniProt P42336)
[28] = biological target: PIM1 (human) (UniProt P11309)
[29] = biological target: PTK6 (human) (UniProt Q13882)
[30] = biological target: ROCK1 (human) (UniProt Q13464)
[31] = biological target: ROS1 (human) (UniProt P08922)
[32] = biological target: SGK110 (human) (UniProt P0C264)
Chain of SGK110 (human) (P0C264 whole entry, looked up): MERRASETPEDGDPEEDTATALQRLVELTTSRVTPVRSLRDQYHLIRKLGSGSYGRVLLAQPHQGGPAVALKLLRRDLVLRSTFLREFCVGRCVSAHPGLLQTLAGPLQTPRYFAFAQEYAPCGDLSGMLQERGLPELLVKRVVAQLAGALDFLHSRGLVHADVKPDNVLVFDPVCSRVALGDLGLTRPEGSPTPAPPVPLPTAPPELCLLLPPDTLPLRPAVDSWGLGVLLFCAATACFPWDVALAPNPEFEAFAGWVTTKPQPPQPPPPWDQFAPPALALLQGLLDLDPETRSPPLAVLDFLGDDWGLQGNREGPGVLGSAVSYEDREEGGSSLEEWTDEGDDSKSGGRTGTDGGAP

[33] = biological target: STK17A (human) (UniProt Q9UEE5)
[34] = biological target: STK3 (human) (UniProt Q13188)
[35] = biological target: STK38 (human) (UniProt Q15208)
Chain of STK38 (human) (Q15208 whole entry, looked up): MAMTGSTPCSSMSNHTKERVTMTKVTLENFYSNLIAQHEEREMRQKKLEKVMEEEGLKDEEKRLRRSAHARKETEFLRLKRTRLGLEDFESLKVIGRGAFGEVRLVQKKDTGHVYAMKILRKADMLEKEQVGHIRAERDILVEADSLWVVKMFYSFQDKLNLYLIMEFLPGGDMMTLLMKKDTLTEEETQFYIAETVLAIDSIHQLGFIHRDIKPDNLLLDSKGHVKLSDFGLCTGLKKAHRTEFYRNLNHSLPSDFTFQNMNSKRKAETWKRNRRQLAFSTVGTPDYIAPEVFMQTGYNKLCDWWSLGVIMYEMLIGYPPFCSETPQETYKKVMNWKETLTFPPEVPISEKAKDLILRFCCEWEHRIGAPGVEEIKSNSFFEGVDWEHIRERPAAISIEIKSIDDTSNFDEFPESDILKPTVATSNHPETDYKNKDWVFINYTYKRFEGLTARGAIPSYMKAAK

[36] = biological target: TAOK1 (human) (UniProt Q7L7X3)
[37] = biological target: TNK2 (human) (UniProt Q07912)
Chain of TNK2 (human) (Q07912 whole entry, looked up): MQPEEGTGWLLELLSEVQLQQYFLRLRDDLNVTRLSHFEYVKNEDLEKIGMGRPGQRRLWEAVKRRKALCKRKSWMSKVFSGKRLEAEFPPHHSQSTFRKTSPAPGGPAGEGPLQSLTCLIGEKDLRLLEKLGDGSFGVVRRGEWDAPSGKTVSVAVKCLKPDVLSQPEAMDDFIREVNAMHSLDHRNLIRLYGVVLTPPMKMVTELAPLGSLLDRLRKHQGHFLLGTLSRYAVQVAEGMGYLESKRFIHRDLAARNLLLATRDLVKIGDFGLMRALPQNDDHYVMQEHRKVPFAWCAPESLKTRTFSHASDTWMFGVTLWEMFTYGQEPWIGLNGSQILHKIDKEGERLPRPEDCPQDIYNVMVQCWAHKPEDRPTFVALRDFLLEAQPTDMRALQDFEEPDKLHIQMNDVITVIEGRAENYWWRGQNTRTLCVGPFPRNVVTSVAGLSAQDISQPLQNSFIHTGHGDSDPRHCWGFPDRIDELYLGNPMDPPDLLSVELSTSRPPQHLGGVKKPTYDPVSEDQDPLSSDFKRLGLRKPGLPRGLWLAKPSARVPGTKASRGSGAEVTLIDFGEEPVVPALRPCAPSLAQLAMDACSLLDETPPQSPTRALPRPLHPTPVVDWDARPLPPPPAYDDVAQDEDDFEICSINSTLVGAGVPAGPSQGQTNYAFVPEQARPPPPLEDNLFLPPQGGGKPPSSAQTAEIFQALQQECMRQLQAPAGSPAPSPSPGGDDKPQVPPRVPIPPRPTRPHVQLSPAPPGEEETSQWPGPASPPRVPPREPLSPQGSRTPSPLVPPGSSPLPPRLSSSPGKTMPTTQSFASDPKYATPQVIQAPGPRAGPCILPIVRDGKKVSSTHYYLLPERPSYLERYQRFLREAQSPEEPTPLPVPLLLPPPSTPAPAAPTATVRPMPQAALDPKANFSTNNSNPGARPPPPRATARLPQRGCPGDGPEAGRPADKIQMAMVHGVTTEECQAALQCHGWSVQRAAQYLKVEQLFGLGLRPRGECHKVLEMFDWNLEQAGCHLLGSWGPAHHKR

[38] = biological target: TRPM6 (human) (UniProt Q9BX84)
[39] = biological target: TTK (human) (UniProt P33981)
[40] = biological target: WEE2 (human) (UniProt P0C1S8)
[41] = biological target: YES1 (human) (UniProt P07947)

Chain of EPHA3 (human) (P29320 whole entry, looked up): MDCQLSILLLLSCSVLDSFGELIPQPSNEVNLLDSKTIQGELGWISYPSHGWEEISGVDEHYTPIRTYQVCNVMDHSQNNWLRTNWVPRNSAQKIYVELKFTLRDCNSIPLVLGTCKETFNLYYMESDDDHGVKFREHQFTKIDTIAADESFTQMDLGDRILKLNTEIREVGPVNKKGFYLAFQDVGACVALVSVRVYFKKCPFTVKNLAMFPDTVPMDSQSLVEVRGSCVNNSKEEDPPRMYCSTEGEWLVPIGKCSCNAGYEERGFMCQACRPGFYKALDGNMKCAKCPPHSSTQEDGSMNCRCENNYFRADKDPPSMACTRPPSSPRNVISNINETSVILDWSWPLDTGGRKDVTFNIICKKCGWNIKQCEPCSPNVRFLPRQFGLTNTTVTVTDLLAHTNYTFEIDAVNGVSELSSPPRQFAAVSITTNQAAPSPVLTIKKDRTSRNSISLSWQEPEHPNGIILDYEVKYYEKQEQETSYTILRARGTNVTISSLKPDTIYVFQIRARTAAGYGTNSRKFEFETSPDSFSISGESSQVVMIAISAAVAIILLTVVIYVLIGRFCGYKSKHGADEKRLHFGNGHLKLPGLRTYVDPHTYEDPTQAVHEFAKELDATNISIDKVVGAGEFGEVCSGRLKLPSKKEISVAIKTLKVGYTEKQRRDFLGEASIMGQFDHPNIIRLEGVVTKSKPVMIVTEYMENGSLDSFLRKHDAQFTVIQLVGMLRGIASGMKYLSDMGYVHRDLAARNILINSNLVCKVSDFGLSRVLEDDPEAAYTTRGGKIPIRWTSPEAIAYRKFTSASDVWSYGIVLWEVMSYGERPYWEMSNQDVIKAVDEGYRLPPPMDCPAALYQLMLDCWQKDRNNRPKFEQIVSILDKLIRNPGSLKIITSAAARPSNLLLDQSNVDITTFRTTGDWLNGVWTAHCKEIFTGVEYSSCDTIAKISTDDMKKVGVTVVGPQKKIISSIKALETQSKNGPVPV

CC1=C(C(=O)Nc2cc3cn[nH]c3cc2F)C(c2ccc(C(F)(F)F)cc2)CC(=O)N1 (stereo not drawn)
kinase still bound, per cent of control [1]: 100% | kinase still bound, per cent of control [2]: 76% | kinase still bound, per cent of control [3]: 84% | kinase still bound, per cent of control [4]: 65% | kinase still bound, per cent of control [5]: 69% | kinase still bound, per cent of control [6]: 100% | kinase still bound, per cent of control [7]: 88% | kinase still bound, per cent of control [8]: 95% | kinase still bound, per cent of control [9]: 78% | kinase still bound, per cent of control [10]: 89% | kinase still bound, per cent of control [11]: 79% | kinase still bound, per cent of control [12]: 96% | kinase still bound, per cent of control [13]: 12% | kinase still bound, per cent of control [14]: 100% | kinase still bound, per cent of control [15]: 100% | kinase still bound, per cent of control [16]: 77% | kinase still bound, per cent of control [17]: 100% | kinase still bound, per cent of control [18]: 98% | kinase still bound, per cent of control [19]: 82% | kinase still bound, per cent of control [20]: 99% | kinase still bound, per cent of control [21]: 55% | kinase still bound, per cent of control [22]: 24% | kinase still bound, per cent of control [23]: 88% | kinase still bound, per cent of control [24]: 91% | kinase still bound, per cent of control [25]: 79% | kinase still bound, per cent of control [26]: 100% | kinase still bound, per cent of control [27]: 80% | kinase still bound, per cent of control [28]: 88% | kinase still bound, per cent of control [29]: 60% | kinase still bound, per cent of control [30]: 0.3% | kinase still bound, per cent of control [31]: 100% | kinase still bound, per cent of control [32]: 59% | kinase still bound, per cent of control [33]: 95% | kinase still bound, per cent of control [34]: 63% | kinase still bound, per cent of control [35]: 19% | kinase still bound, per cent of control [36]: 53% | kinase still bound, per cent of control [37]: 88% | kinase still bound, per cent of control [38]: 70% | kinase still bound, per cent of control [39]: 100% | kinase still bound, per cent of control [40]: 66% | kinase still bound, per cent of control [41]: 65%

C=CC(=O)Nc1ccc(C(=O)c2sc(Nc3ccc(N4CCN(C)CC4)cc3OC)nc2N)cc1
kinase still bound, per cent of control [1]: 100% | kinase still bound, per cent of control [2]: 42% | kinase still bound, per cent of control [3]: 100% | kinase still bound, per cent of control [4]: 8.9% | kinase still bound, per cent of control [5]: 4.7% | kinase still bound, per cent of control [6]: 0.15% | kinase still bound, per cent of control [7]: 80% | kinase still bound, per cent of control [8]: 52% | kinase still bound, per cent of control [9]: 100% | kinase still bound, per cent of control [10]: 100% | kinase still bound, per cent of control [11]: 32% | kinase still bound, per cent of control [12]: 98% | kinase still bound, per cent of control [13]: 74% | kinase still bound, per cent of control [14]: 79% | kinase still bound, per cent of control [15]: 100% | kinase still bound, per cent of control [16]: 60% | kinase still bound, per cent of control [17]: 100% | kinase still bound, per cent of control [18]: 90% | kinase still bound, per cent of control [19]: 9.8% | kinase still bound, per cent of control [20]: 87% | kinase still bound, per cent of control [21]: 100% | kinase still bound, per cent of control [22]: 99% | kinase still bound, per cent of control [23]: 66% | kinase still bound, per cent of control [24]: 64% | kinase still bound, per cent of control [25]: 71% | kinase still bound, per cent of control [26]: 18% | kinase still bound, per cent of control [27]: 95% | kinase still bound, per cent of control [28]: 90% | kinase still bound, per cent of control [29]: 80% | kinase still bound, per cent of control [30]: 42% | kinase still bound, per cent of control [31]: 38% | kinase still bound, per cent of control [32]: 100% | kinase still bound, per cent of control [33]: 100% | kinase still bound, per cent of control [34]: 98% | kinase still bound, per cent of control [35]: 67% | kinase still bound, per cent of control [36]: 32% | kinase still bound, per cent of control [37]: 82% | kinase still bound, per cent of control [38]: 35% | kinase still bound, per cent of control [39]: 0.7% | kinase still bound, per cent of control [40]: 100% | kinase still bound, per cent of control [41]: 86%

COc1cc2c(Nc3ccc(NC(=O)c4ccccc4)cc3)ncnc2cc1OCCCN1CCOCC1
kinase still bound, per cent of control [1]: 100% | kinase still bound, per cent of control [2]: 90% | kinase still bound, per cent of control [3]: 1.8% | kinase still bound, per cent of control [4]: 100% | kinase still bound, per cent of control [5]: 34% | kinase still bound, per cent of control [6]: 58% | kinase still bound, per cent of control [7]: 60% | kinase still bound, per cent of control [8]: 100% | kinase still bound, per cent of control [9]: 100% | kinase still bound, per cent of control [10]: 70% | kinase still bound, per cent of control [11]: 100% | kinase still bound, per cent of control [12]: 77% | kinase still bound, per cent of control [13]: 72% | kinase still bound, per cent of control [14]: 100% | kinase still bound, per cent of control [15]: 59% | kinase still bound, per cent of control [16]: 70% | kinase still bound, per cent of control [17]: 100% | kinase still bound, per cent of control [18]: 100% | kinase still bound, per cent of control [19]: 89% | kinase still bound, per cent of control [20]: 42% | kinase still bound, per cent of control [21]: 3.9% | kinase still bound, per cent of control [22]: 44% | kinase still bound, per cent of control [23]: 100% | kinase still bound, per cent of control [24]: 81% | kinase still bound, per cent of control [25]: 94% | kinase still bound, per cent of control [26]: 100% | kinase still bound, per cent of control [27]: 100% | kinase still bound, per cent of control [28]: 100% | kinase still bound, per cent of control [29]: 0.8% | kinase still bound, per cent of control [30]: 98% | kinase still bound, per cent of control [31]: 41% | kinase still bound, per cent of control [32]: 100% | kinase still bound, per cent of control [33]: 100% | kinase still bound, per cent of control [34]: 100% | kinase still bound, per cent of control [35]: 92% | kinase still bound, per cent of control [36]: 95% | kinase still bound, per cent of control [37]: 5.9% | kinase still bound, per cent of control [38]: 98% | kinase still bound, per cent of control [39]: 40% | kinase still bound, per cent of control [40]: 100% | kinase still bound, per cent of control [41]: 16%

From the kinase profiling compilation of Christmann-Franck et al. (2016)
